Results as given in patent publication US9540392B2, “Thienopyrimidines” (BAYER PHARMA AKTIENGESELLSCHAFT, priority 2012, dated 2017).
pIC50: −log10 of the molar value.

Biological target: T1, human full-length MKNK1 (Homo sapiens, UniProt Q9BUB5, T385D)
T1 construct: GST (N); purchased Carna Biosciences 02-145; host or cells: insect cells (baculovirus expression system)
Test: MKNK1 kinase high ATP assay (TR-FRET)
Format: biochemical
Conditions: 2 mM ATP, after preincubation with MKNK1; read-out: MKNK1 IC50 (MKNK1 high ATP)
Experimental: MKNK1-inhibitory activity at high ATP of compounds of the present invention after their preincubation with MKNK1 was quantified employing the TR-FRET-based MKNK1 high ATP assay as described in the following paragraphs.
As substrate for the kinase reaction the biotinylated peptide biotin-Ahx-[…] (C-terminus in amide form) was used, which can be purchased e.g. from the company Biosyntan (Berlin-Buch, Germany).
For the assay 50 nL of a 100 fold concentrated solution of the test compound in DMSO was pipetted into a black low volume 384 well microtiter plate (Greiner Bio-One, Frickenhausen, Germany), 2 μL of a solution of MKNK1 in aqueous assay buffer [50 mM HEPES pH 7.5, 5 mM MgCl2, 1.0 mM dithiothreitol, 0.005% (v/v) Nonidet-P40 (Sigma)] was added and the mixture was incubated for 15 min at 22° C. to allow pre-binding of the test compounds to the enzyme before the start of the kinase reaction. Then the kinase reaction was started by the addition of 3 μL of a solution of adenosine-tri-phosphate (ATP, 3.3 mM=>final conc. in the 5 μL assay volume is 2 mM) and substrate (0.1 μM=>final conc. in the 5 μL assay volume is 0.06 μM) in assay buffer and the resulting mixture was incubated for a reaction time of 30 min at 22° C. The concentration of MKNK1 was adjusted depending of the activity of the enzyme lot and was chosen appropriate to have the assay in the linear range, typical concentrations were in the range of 0.003 μg/mL. The reaction was stopped by the addition of 5 μL of a solution of TR-FRET detection reagents (5 nM streptavidine-XL665 [Cisbio Bioassays, Codolet, France] and 1 nM anti-ribosomal protein S6 (pSer236)-antibody from Invitrogen [#44921G] and 1 nM LANCE EU-W1024 Labeled ProteinG [Perkin-Elmer, product no. AD0071]) in an aqueous EDTA-solution (100 mM EDTA, 0.1% (w/v) bovine serum albumin in 50 mM HEPES pH 7.5).
The resulting mixture was incubated for 1 h at 22° C. to allow the formation of complex between the phosphorylated biotinylated peptide and the detection reagents. Subsequently the amount of phosphorylated substrate was evaluated by measurement of the resonance energy transfer from the Eu-chelate to the streptavidine-XL. Therefore, the fluorescence emissions at 620 nm and 665 nm after excitation at 350 nm were measured in a TR-FRET reader, e.g. a Rubystar (BMG Labtechnologies, Offenburg, Germany) or a Viewlux (Perkin-Elmer). The ratio of the emissions at 665 nm and at 622 nm was taken as the measure for the amount of phosphorylated substrate.

T1 sequence (Q9BUB5 1-424 isoform Q9BUB5-2 T344D): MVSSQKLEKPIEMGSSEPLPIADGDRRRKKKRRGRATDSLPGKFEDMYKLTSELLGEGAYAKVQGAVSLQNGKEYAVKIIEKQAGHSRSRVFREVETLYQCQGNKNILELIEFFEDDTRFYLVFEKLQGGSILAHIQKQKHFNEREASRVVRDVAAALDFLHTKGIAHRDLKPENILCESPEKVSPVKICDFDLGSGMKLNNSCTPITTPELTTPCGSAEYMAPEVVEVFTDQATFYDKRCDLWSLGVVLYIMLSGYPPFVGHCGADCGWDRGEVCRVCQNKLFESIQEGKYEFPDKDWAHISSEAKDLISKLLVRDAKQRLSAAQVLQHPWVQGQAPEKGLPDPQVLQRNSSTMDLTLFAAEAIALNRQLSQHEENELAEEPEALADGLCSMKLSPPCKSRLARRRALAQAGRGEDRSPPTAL

| SMILES | pIC50 |
| --- | --- |
| N#Cc1ccc(NC(=O)C2CCc3c(sc4ncnc(Nc5ccc6[nH]ncc6c5)c34)C2)cc1 (racemic) [Example 77, (RS)—N-(4-Cyanophenyl)-4-(1H-indazol-5-ylamino)-5,6,7,8-tetrahydro[1]benzothieno[2,3-d]pyrimidine-7-carboxamide] | 7.71 |
| CCOc1cc2[nH]ncc2cc1Nc1ncnc2sc3c(c12)CCC(C(=O)N1CCC2(CC2)C1)C3 (racemic) [Example 274, (RS)-5-Azaspiro[2.4]hept-5-yl{4-[(6-ethoxy-1H-indazol-5-yl)amino]-5,6,7,8-tetrahydro[1]benzothieno[2,3-d]pyrimidin-7-yl}methanone] | 9.00 |
| CC(C)Oc1cc2[nH]ncc2cc1Nc1ncnc2sc3c(c12)CCC(C(=O)O)C3 (racemic) [Example 69, (RS)-4-{[6-(Propan-2-yloxy)-1H-indazol-5-yl]amino}-5,6,7,8-tetrahydro[1]benzothieno[2,3-d]pyrimidine-7-carboxylic acid] | 8.41 |
| O=C(C1CCc2c(sc3ncnc(Nc4ccc5[nH]ncc5c4)c23)C1)N1CCN(CC2CC2)CC1 (racemic) [Example 191, (RS)-[4-(cyclopropylmethyl)piperazin-1-yl][4-(1H-indazol-5-ylamino)-5,6,7,8-tetrahydro[1]benzothieno[2,3-d]pyrimidin-7-yl]methanone] | 8.14 |
| O=C(NCc1cccnc1)C1CCc2c(sc3ncnc(Nc4ccc5[nH]ncc5c4)c23)C1 (stereo not shown) [Example 32, 4-(1H-Indazol-5-ylamino)-N-(pyridin-3-ylmethyl)-5,6,7,8-tetrahydro[1] benzothieno [2,3-d]pyrimidine-7-carboxamide] | 8.30 |
| O=C(NCCN1CCCC1)C1CCc2c(sc3ncnc(Nc4ccc5[nH]ncc5c4)c23)C1 (racemic) [Example 98, (RS)-4-(1H-indazol-5-ylamino)-N-[2-(pyrrolidin-1-yl)ethyl]-5,6,7,8-tetrahydro[1]benzothieno[2,3-d]pyrimidine-7-carboxamide] | 8.09 |
| Cc1cnc(CNC(=O)C2CCc3c(sc4ncnc(Nc5ccc6[nH]ncc6c5)c34)C2)cn1 (racemic) [Example 148, (RS)-4-(1H-indazol-5-ylamino)-N-[(5-methylpyrazin-2-yl)methyl]-5,6,7,8-tetrahydro[1]benzothieno[2,3-d]pyrimidine-7-carboxamide] | 8.09 |
| CC(C)Oc1cc2[nH]ncc2cc1Nc1ncnc2sc3c(c12)CCC(C(=O)N1CCCC1)C3 (racemic) [Example 221, (RS)-(4-{[6-(Propan-2-yloxy)-1H-indazol-5-yl]amino}-5,6,7,8-tetrahydro[1]benzothieno[2,3-d]pyrimidin-7-yl)(pyrrolidin-1-yl)methanone] | 9.15 |
| CN(Cc1ccsc1)C(=O)C1CCc2c(sc3ncnc(Nc4ccc5[nH]ncc5c4)c23)C1 (racemic) [Example 162, (RS)-4-(1H-indazol-5-ylamino)-N-methyl-N-(thiophen-3-ylmethyl)-5,6,7,8-tetrahydro[1]benzothieno[2,3-d]pyrimidine-7-carboxamide] | 8.28 |
| CCCOc1cc2[nH]ncc2cc1Nc1ncnc2sc3c(c12)CCC(C(=O)N(C)C)C3 (racemic) [Example 269, (RS)—N,N-Dimethyl-4-[(6-propoxy-1H-indazol-5-yl)amino]-5,6,7,8-tetrahydro[1]benzothieno[2,3-d]pyrimidine-7-carboxamide] | 8.57 |
| Cc1ccccc1NC(=O)C1CCc2c(sc3ncnc(Nc4ccc5[nH]ncc5c4)c23)C1 (stereo not shown) [Example 15, 4-(1H-indazol-5-ylamino)-N-(2-methylphenyl)-5,6,7,8-tetrahydro[1]benzothieno[2,3-d]pyrimidine-7-carboxamide] | 8.52 |
| CN(C)CCN(C)C(=O)C1CCc2c(sc3ncnc(Nc4ccc5[nH]ncc5c4)c23)C1 (stereo not shown) [Example 45, N-[2-(Dimethylamino)ethyl]-4-(1H-indazol-5-ylamino)-N-methyl-5,6,7,8-tetrahydro[1] benzothieno [2,3-d]pyrimidine-7-carboxamide] | 8.05 |
| O=C(NCc1ccc2c(c1)OCO2)C1CCc2c(sc3ncnc(Nc4ccc5[nH]ncc5c4)c23)C1 (stereo not shown) [Example 23, N-(1,3-Benzodioxol-5-ylmethyl)-4-(1H-indazol-5-ylamino)-5,6,7,8-tetrahydro[1] benzothieno [2,3-d]pyrimidine-7-carboxamide] | 8.52 |
| COc1cc2[nH]ncc2cc1Nc1ncnc2sc3c(c12)CCC(C(=O)N1CC(OC(=O)N(C)C)C1)C3 (racemic) [Example 275, (RS)-1-({4-[(6-Methoxy-1H-indazol-5-yl)amino]-5,6,7,8-tetrahydro[1]benzothieno[2,3-d]pyrimidin-7-yl}carbonyl)azetidin-3-yl dimethylcarbamate] | 7.70 |
| CCOc1cc2[nH]ncc2cc1Nc1ncnc2sc3c(c12)CCC(C(=O)N(C)C(C)(C)C)C3 (racemic) [Example 238, (RS)—N-tert-Butyl-4-[(6-ethoxy-1H-indazol-5-yl)amino]-N-methyl-5,6,7,8-tetrahydro[1]benzothieno[2,3-d]pyrimidine-7-carboxamide] | 8.82 |
| CCOc1cc2[nH]ncc2cc1Nc1ncnc2sc3c(c12)CCC(C(=O)N1CCCCC1)C3 (racemic) [Example 209, (RS)-{4-[(6-Ethoxy-1H-indazol-5-yl)amino]-5,6,7,8-tetrahydro[1]benzothieno[2,3-d]pyrimidin-7-yl}(piperidin-1-yl)methanone] | 9.15 |
| CCN(C)C(=O)C1CCc2c(sc3ncnc(Nc4cc5cn[nH]c5cc4OC(C)C)c23)C1 (racemic) [Example 217, (RS)—N-Ethyl-N-methyl-4-{[6-(propan-2-yloxy)-1H-indazol-5-yl]amino}-5,6,7,8-tetrahydro[1]benzothieno[2,3-d]pyrimidine-7-carboxamide] | 9.00 |
| CN(C)CCNC(=O)C1CCc2c(sc3ncnc(Nc4ccc5[nH]ncc5c4)c23)C1 (stereo not shown) [Example 38, N-[2-(Dimethylamino)ethyl]-4-(1H-indazol-5-ylamino)-5,6,7,8-tetrahydro[1] benzothieno [2,3-d]pyrimidine-7-carboxamide] | 8.22 |
| CC(C)CNC(=O)C1CCc2c(sc3ncnc(Nc4ccc5[nH]ncc5c4)c23)C1 (stereo not shown) [Example 39, 4-(1H-Indazol-5-ylamino)-N-(2-methylpropyl)-5,6,7,8-tetrahydro[1] benzothieno [2,3-d]pyrimidine-7-carboxamide] | 8.22 |
| N#CC1CCCN(C(=O)C2CCc3c(sc4ncnc(Nc5ccc6[nH]ncc6c5)c34)C2)C1 (racemic) [Example 196, (RS)-1-{[4-(1H-indazol-5-yalmino)-5,6,7,8-tetrahydro[1]benzothieno[2,3-d]pyrimidin-7-yl]carbonyl}piperidine-3-carbonitrile] | 8.12 |
| COc1cc2[nH]ncc2cc1Nc1ncnc2sc3c(c12)CCC(C(=O)N1CC2(COC2)C1)C3 (racemic) [Example 250, (RS)-{4-[(6-Methoxy-1H-indazol-5-yl)amino]-5,6,7,8-tetrahydro[1]benzothieno[2,3-d]pyrimidin-7-yl}(2-oxa-6-azaspiro[3.3]hept-6-yl)methanone] | 9.30 |
| CCOc1cc2[nH]ncc2cc1Nc1ncnc2sc3c(c12)CCC(C(=O)N(CC)C(C)C)C3 (racemic) [Example 236, (RS)-4-[(6-Ethoxy-1H-indazol-5-yl)amino]-N-ethyl-N-(propan-2-yl)-5,6,7,8-tetrahydro[1]benzothieno[2,3-d]pyrimidine-7-carboxamide] | 8.55 |
| CCOc1cc2[nH]ncc2cc1Nc1ncnc2sc3c(c12)CCC(C(=O)N1CCOCC1)C3 (racemic) [Example 212, (RS)-{4-[(6-Ethoxy-1H-indazol-5-yl)amino]-5,6,7,8-tetrahydro[1]benzothieno[2,3-d]pyrimidin-7-yl}(morpholin-4-yl)methanone] | 9.52 |
| CCN(CC)C(=O)C1CCc2c(sc3ncnc(Nc4ccc5[nH]ncc5c4)c23)C1 (racemic) [Example 83, (RS)-N,N-diethyl-4-(1H-indazol-5-ylamino)-5,6,7,8-tetrahydro[1]benzothieno[2,3-d]pyrimidine-7-carboxamide] | 7.83 |
| O=C(NCc1ccncc1)C1CCc2c(sc3ncnc(Nc4ccc5[nH]ncc5c4)c23)C1 (stereo not shown) [Example 29, 4-(1H-Indazol-5-ylamino)-N-(pyridin-4-ylmethyl)-5,6,7,8-tetrahydro[1] benzothieno [2,3-d]pyrimidine-7-carboxamide] | 8.40 |
